Holding throughout (assay): Disk diffusion assay, zone of inhibition
Holding throughout (assay type): cell-based

Test [1] has as its system Enterobacter aerogenes ATCC 13048. As to conditions: N-arylamine derivatives; 10 μL of 0.1 M in DMSO on 6 mm disk; 20-24 hours at 35° C.; NA=No activity. How it is done:
(§1) Bacteria were streaked onto Tryptic Soy Agar plates and incubated overnight at 35° C. Bacteria were suspended in sterile saline to the turbidity of a 0.5 McFarland standard then swabbed onto Mueller Hinton Agar plates to create lawns. Test compounds were dissolved in DMSO at a concentration of 0.1 M, and 10 μL of each were pipetted onto 6 mm diameter glass fiber disks placed on the lawns. Plates were incubated for 20-24 hours at 35° C. after which zones of inhibition (diameters in mm) were measured for each test compound.

For test [2], the system named is Pseudomonas aeruginosa ATCC 27853. As to conditions: N-arylamine derivatives; 10 μL of 0.1 M in DMSO on 6 mm disk; 20-24 hours at 35° C.; NA=No activity. How it is done:
as §1

Test [3] concerns Bacillus subtilis ATCC 6633. How it is done: as §1
In test [4] the test system is Staphylococcus aureus ATCC 25923. How it is done: as §1
[5] abbreviates: ATCC6633, read-out: Zone of inhibition in mm, B s, azomethines, 10 μL of 0.1 M in DMSO on 6 mm disk, 20-24 hours at 35° C., NA=No activity.
Where [6] appears, read: ATCC25923, read-out: Zone of inhibition in mm, S a.
Where [7] appears, read: ATCC6633, read-out: Zone of inhibition in mm, B s, N-arylamine derivatives, 10 μL of 0.1 M in DMSO on 6 mm disk, 20-24 hours at 35° C., NA=No activity.
Setting [8] is: ATCC6633, N-arylamine derivatives, 10 μL of 0.1 M in DMSO on 6 mm disk, 20-24 hours at 35° C., NA=No activity, read-out: Zone of inhibition in mm, B s.
The mark [9] stands for this setting: ATCC6633, azomethines, 10 μL of 0.1 M in DMSO on 6 mm disk, 20-24 hours at 35° C., NA=No activity, read-out: Zone of inhibition in mm, B s.
Where [10] appears, read: ATCC25923, N-arylamine derivatives, 10 μL of 0.1 M in DMSO on 6 mm disk, 20-24 hours at 35° C., NA=No activity, read-out: Zone of inhibition in mm, S a.

Molecules are shown by their SMILES. Read-outs that look alike come from different tables or passages of the source.

`O=C(N[C@H](CO)[C@H](O)c1ccc([N+](=O)[O-])cc1)C(Cl)Cl` [Chloramphenicol]: the “Zone of inhibition in mm, E a” value in test [1] came to 28 mm. Also, the “Zone of inhibition in mm, P a” value in test [2] came out at 8 mm.
Usually zone of inhibition stands for the size of the clear area around the sample on an inoculated plate. For `Cc1ccccc1` [a], the zone of inhibition at 100000 µM was determined as 8 mm in test [3] (setting [5]) and 20 mm in test [4] (setting [6]).
With `Cc1ccc(F)cc1` [b], the results for the zone of inhibition at 100000 µM in test [3] (setting [7]), in test [3] (setting [5]) and in test [4] (setting [6]) were 18 mm, 8 mm and 18 mm, respectively.
On to `Cc1ccc(Cl)cc1` [c], for which the zone of inhibition at 100000 µM was determined as 18 mm in test [3] (setting [8]), 9 mm in test [3] (setting [9]) and 18 mm in test [4] (setting [10]).
Consider `Cc1ccc(Br)cc1` [d], for which the zone of inhibition at 100000 µM amounted to 8 mm in test [3] (setting [8]), 8 mm in test [3] (setting [9]) and 9 mm in test [4] (setting [10]).
Take `Cc1ccc(C)cc1` [e]: the zone of inhibition at 100000 µM in test [3] (setting [7]) came to 18 mm; in test [3] (setting [5]) it was 8 mm; in test [4] (setting [6]) it was 17 mm.
For the compound `Cc1ccc(C(C)(C)C)cc1` [f], the figures for the zone of inhibition at 100000 µM in test [3] (setting [8]), in test [3] (setting [9]) and in test [4] (setting [10]) were 14 mm, 8 mm and 8 mm, respectively.
Take `COc1ccc(C)cc1` [g]: the zone of inhibition at 100000 µM in test [3] (setting [7]) is 14 mm; in test [3] (setting [5]), 10 mm; in test [4] (setting [6]), 15 mm.
On to `Cc1ccc(Oc2ccccc2)cc1` [h], for which the values for the zone of inhibition at 100000 µM in test [3] (setting [8]) and in test [4] (setting [10]) were 12 mm and 11 mm, respectively.
